The values that follow come from publication PMC4608580, “Synthesis and Evaluation of Biological Activity of Antimicrobial – Pro-Proliferative Peptide Conjugates” (PLoS ONE, 2015).

Some results are limits rather than exact numbers.

Holding throughout (assay type): cell-based
In data set [1] the test system is Pseudomonas aeruginosa (PCM 499). Conditions: broth microdilution, Mueller-Hinton broth, approximately 10^5 CFU/mL, 37°C, 24 h, absorbance 590 nm, at least triplicate. In short, it runs like this:
(§1)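 Broth microdilution MIC: peptides serially diluted in PBS (2 to 250 μg/mL) were mixed with double-concentrated Mueller-Hinton broth inoculum, about 10^5 CFU/mL for bacteria or about 2.5 x 10^3 CFU/mL for Candida (broth supplemented with 2% glucose). After incubation at 37°C, absorbance at 590 nm was read at 24 h, in at least triplicate.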
A general note: Broth dilution looks for growth in wells or tubes with falling amounts of substance.

The test system of data set [2] is Staphylococcus aureus (PCM 2054). The conditions noted are these: broth microdilution, Mueller-Hinton broth, approximately 10^5 CFU/mL, 37°C, 24 h, absorbance 590 nm, at least triplicate. In short, it runs like this: as §1
Data set [3] deals with Candida krusei (CCM 8271). The conditions noted are these: broth microdilution, Mueller-Hinton broth + 2% glucose, about 2.5 x 10^3 CFU/mL, 37°C, 24 h, absorbance 590 nm, at least triplicate. The method, boiled down: as §1
Data set [4] deals with Escherichia coli (PCM 2057). The conditions noted are these: broth microdilution, Mueller-Hinton broth, approximately 10^5 CFU/mL, 37°C, 24 h, absorbance 590 nm, at least triplicate. The method, boiled down:
as §1

Data set [5] has as its system Staphylococcus epidermidis (PCM 2118). Conditions: broth microdilution, Mueller-Hinton broth, approximately 10^5 CFU/mL, 37°C, 24 h, absorbance 590 nm, at least triplicate. The method, boiled down: as §1
For data set [6], the system named is Candida parapsilosis (CCM 8260). Conditions: broth microdilution, Mueller-Hinton broth + 2% glucose, about 2.5 x 10^3 CFU/mL, 37°C, 24 h, absorbance 590 nm, at least triplicate. The method, boiled down:
as §1

The subject of data set [7] is human primary dermal fibroblasts. Nature of the data set: Cell proliferation assay (MTT). Conditions: 72 h, serum-free DMEM, peptide at 25 and 50 μg/mL. The procedure:
Biopsies of healthy human skin were obtained aseptically from three donors (47–69 years old) undergoing circumcision after obtaining their written informed consent. All the procedures were approved by the Ethics Committee of Medical University of Gdansk (NKEBN/483/2011. Issued: 2011-12-19). The samples were washed several times with sterile PBS (Sigma-Aldrich, Germany) containing antibiotic (200 U/mL penicillin and 200 μg/mL streptomycin), after which, the subcutaneous tissue was cut off with a sharp blade. The resulting sheets were cut into small fragments, washed two times with sterile PBS and treated with 6 U/mL dispase II (BD, USA) overnight at 4°C to separate epidermis and dermis. The dermis was then digested with 1.0 mg/mL collagenase type I (from Clostridium histolyticum Sigma-Aldrich, Germany) for 2 hours at 37°C to isolate fibroblasts. Cells were used between the 2nd and 4th passage in all experiments.
In our study two kind of cells were used: immortalized human HaCaT keratinocytes (DKFZ Heidelberg, Germany) and primary dermal fibroblasts obtained from 3 healthy donors. Both types of the used cell lines were grown in Dulbecco's modified Eagle's medium (DMEM) (Sigma–Aldrich, Germany), that contained […] of glucose, […] of L-glutamine, sodium pyruvate and sodium bicarbonate. Additionally, medium was supplemented with 10% of FCS (fetal calf serum, Sigma-Aldrich, Germany), 100 U/mL of penicillin and 100 μg/mL streptomycin (Sigma-Aldrich, Germany). The cells were grown in culture dishes (BD, USA) under standard conditions in a humidified atmosphere with 5% CO2 at 37°C and medium was changed every 2 days.
The fibroblasts and keratinocytes were seeded at density of 4500 and 6000 cells per well, respectively, into 96-well plates suspended in a medium supplemented with 10% of FCS. After 24 h the media were exchanged with serum- and antibiotic- free DMEM and tested peptides dissolved in PBS were added yielding final concentration ranging from 1 to 50 μg/mL. Cells were incubated for the next 24 hours, when the medium was exchanged again and fresh portion of peptides (used at the same concentrations as previously) was added. Incubation was continued for the next 48 hours (the overall time of cell exposition to peptide was 72 h). […] After 15 min when the purple crystals of formazan were fully solubilized, absorbance was read at 570 nm with a plate reader. […]
Fig 1 Pro-proliferative activity of the tested peptides towards human keratinocytes (A) and fibroblasts (B). […] The data represents results of MTT assay expressed as the percentage of the cell viability in comparison to their control sample (cells incubated in serum-free DMEM without tested peptides), additional positive control corresponds to the cells incubated in the presence of 10% FCS. […]

For “IKKILSKIKKLL-NH2 [DK5, Lys-rich derivative of amphibian AMP temporin-1CEb, …-NH2, reference compound]”, the “MIC P. aeruginosa” value in data set [1] came to 50 µg/mL. Also, the “MIC S.aureus” value in data set [2] was greater than 125 µg/mL. The “MIC C.krusei” value in data set [3] is 7.8 µg/mL. In addition, in data set [4], the “MIC E.coli” value is greater than 125 µg/mL. The “MIC S. epidermidis” value in data set [5] amounted to 7.8 µg/mL. In addition, the “MIC C. parapsilosis” value in data set [6] is 31.3 µg/mL.
In the case of “YAGFLR-PEG-IKKILSKIKKLL-NH2 [DAL-PEG-DK5, conjugate of dalargin and DK5 joined by PEG-linker]”, the “Effect on fibroblast viability (MTT), in words” value in data set [7] was “lowest cell viability”. Besides, the “MIC P. aeruginosa” value in data set [1] turned out to be 25 µg/mL. Also, the “MIC S.aureus” value in data set [2] turned out to be 50 µg/mL. In addition, the “MIC C.krusei” value in data set [3] is 3.9 µg/mL. Moreover, the “MIC E.coli” value in data set [4] came out at 25 µg/mL. In data set [5], the “MIC S. epidermidis” value was 7.8 µg/mL. In addition, the “MIC C. parapsilosis” value in data set [6] was 2.0 µg/mL.
Take “YAGFLR-PEG-IKKILSKIKKLLK-NH2 [DAL-PEG-LK6, conjugate of dalargin and LK6 joined by PEG-linker]”: the “Effect on fibroblast viability (MTT), in words” value in data set [7] was “lowest cell viability”. In data set [1], the “MIC P. aeruginosa” value amounted to 25 µg/mL. The “MIC S.aureus” value in data set [2] amounted to 25 µg/mL. For the same substance, in data set [3], the “MIC C.krusei” value worked out at 7.8 µg/mL. For the same substance, the “MIC E.coli” value in data set [4] came to 25 µg/mL. Also, the “MIC S. epidermidis” value in data set [5] came out at 7.8 µg/mL. In addition, the “MIC C. parapsilosis” value in data set [6] is 2.0 µg/mL.
